Results published in ChEMBL document CHEMBL5291721, “A preclinical secondary pharmacology resource illuminates target-adverse drug reaction associations of marketed drugs” (Nat Commun, 2023).

Legend:
[1] = biological target: T1, Muscarinic acetylcholine receptor M1 (Homo sapiens, UniProt P11229)
T1 sequence (P11229 whole entry): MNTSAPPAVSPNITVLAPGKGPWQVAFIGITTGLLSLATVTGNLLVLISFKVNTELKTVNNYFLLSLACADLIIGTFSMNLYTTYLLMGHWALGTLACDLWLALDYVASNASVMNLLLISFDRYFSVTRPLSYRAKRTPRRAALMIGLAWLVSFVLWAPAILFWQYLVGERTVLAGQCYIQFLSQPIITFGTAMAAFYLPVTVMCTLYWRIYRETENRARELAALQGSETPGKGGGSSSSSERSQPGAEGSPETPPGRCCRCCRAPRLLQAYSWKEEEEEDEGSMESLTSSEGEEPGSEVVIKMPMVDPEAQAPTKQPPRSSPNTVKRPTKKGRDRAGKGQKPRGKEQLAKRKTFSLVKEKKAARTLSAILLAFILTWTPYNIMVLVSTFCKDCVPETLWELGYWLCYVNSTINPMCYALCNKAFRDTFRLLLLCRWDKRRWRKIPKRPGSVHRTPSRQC

[2] = biological target: T2, Bile acid receptor (Homo sapiens, UniProt Q96RI1); assay type: functional
T2 sequence (Q96RI1 whole entry): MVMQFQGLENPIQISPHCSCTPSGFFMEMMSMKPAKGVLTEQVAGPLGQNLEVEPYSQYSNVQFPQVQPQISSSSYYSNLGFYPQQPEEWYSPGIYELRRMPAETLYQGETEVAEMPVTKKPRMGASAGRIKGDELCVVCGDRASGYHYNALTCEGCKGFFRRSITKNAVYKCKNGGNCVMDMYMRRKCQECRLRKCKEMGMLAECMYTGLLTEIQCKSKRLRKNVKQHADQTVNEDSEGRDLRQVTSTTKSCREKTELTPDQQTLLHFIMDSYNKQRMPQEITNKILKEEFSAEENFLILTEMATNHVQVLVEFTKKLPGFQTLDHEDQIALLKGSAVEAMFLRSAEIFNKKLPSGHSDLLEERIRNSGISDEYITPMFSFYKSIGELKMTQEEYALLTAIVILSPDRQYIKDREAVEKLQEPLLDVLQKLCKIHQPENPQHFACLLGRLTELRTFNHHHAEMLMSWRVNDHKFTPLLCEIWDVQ

[3] = biological target: T3, Peroxisome proliferator-activated receptor alpha (Homo sapiens, UniProt Q07869); assay type: functional
T3 sequence (Q07869 whole entry): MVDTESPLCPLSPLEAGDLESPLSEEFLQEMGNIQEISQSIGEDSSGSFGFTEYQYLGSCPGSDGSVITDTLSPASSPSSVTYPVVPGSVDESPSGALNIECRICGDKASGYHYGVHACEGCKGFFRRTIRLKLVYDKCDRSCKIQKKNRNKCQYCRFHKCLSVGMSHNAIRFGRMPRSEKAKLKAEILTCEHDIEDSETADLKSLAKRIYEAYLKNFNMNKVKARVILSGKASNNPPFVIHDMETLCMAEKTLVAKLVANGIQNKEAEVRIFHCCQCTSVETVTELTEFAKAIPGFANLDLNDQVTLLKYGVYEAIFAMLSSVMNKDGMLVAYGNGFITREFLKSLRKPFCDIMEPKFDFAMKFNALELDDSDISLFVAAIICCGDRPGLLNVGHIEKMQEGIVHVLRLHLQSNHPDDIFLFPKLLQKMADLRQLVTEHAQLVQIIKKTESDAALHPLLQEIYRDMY

[4] = biological target: T2, Bile acid receptor; assay type: functional; remark: listed apart in the source
[5] = biological target: T3, Peroxisome proliferator-activated receptor alpha; assay type: functional; remark: listed apart in the source
[6] = biological target: T4, Nuclear receptor subfamily 1 group I member 3 (Homo sapiens, UniProt Q14994); assay type: functional
T4 sequence (Q14994 whole entry): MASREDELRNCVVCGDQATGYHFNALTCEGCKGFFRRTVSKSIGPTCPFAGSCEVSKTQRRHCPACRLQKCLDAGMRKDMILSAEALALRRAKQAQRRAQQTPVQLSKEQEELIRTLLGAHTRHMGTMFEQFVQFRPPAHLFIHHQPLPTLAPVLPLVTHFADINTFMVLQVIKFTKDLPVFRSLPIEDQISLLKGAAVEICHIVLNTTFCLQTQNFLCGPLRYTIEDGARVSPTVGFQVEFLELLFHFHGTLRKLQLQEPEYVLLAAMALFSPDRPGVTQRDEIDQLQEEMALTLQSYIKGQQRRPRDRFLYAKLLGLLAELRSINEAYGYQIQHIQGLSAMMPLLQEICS

[7] = biological target: T5, Oxysterols receptor LXR-beta (Homo sapiens, UniProt P55055); assay type: functional
T5 sequence (P55055 whole entry): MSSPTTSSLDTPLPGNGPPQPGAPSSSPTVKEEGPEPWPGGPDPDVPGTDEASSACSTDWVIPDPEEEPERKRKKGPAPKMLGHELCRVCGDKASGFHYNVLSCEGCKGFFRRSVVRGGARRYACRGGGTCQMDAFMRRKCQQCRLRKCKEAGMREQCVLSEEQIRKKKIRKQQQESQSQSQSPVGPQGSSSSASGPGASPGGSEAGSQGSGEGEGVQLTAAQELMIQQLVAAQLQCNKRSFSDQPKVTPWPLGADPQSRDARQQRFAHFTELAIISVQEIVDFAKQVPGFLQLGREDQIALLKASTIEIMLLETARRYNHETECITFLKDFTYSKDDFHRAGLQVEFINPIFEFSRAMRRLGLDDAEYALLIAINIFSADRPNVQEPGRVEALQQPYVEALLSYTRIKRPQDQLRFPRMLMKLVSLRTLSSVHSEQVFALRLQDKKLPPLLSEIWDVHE

[8] = biological target: Gamma-aminobutyric acid type B receptor subunit 1 (Homo sapiens, UniProt Q9UBS5)
[9] = biological target: 5-hydroxytryptamine receptor 5A (Homo sapiens, UniProt P47898)
[10] = biological target: 5-hydroxytryptamine receptor 2A (Homo sapiens, UniProt P28223)
Note: assay procedure not described here.

Chain of Gamma-aminobutyric acid type B receptor subunit 1 (Q9UBS5 whole entry): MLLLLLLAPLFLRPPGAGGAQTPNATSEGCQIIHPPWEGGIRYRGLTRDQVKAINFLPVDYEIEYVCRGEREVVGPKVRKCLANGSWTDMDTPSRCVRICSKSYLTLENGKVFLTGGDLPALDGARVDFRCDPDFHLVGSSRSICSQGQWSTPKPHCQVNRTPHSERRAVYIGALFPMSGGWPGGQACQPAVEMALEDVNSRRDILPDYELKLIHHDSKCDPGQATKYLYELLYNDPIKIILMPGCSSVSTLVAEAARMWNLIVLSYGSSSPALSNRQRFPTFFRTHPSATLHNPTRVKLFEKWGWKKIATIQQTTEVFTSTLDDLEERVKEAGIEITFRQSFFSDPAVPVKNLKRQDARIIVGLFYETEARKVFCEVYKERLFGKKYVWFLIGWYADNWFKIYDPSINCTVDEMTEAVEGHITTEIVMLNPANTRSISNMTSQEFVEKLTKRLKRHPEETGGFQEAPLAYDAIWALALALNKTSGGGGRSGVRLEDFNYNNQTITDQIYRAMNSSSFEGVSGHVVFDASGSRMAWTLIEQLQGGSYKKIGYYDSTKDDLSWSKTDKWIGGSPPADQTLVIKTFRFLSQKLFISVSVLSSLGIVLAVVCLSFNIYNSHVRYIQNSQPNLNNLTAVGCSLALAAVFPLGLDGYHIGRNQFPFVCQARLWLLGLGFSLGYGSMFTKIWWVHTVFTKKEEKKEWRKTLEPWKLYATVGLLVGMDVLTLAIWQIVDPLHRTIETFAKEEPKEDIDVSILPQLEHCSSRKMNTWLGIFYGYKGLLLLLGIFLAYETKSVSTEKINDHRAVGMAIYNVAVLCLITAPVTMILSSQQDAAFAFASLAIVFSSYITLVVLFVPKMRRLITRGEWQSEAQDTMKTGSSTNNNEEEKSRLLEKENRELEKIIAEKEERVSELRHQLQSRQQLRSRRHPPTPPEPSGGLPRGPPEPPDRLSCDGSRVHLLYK
Chain of 5-hydroxytryptamine receptor 2A (P28223 whole entry): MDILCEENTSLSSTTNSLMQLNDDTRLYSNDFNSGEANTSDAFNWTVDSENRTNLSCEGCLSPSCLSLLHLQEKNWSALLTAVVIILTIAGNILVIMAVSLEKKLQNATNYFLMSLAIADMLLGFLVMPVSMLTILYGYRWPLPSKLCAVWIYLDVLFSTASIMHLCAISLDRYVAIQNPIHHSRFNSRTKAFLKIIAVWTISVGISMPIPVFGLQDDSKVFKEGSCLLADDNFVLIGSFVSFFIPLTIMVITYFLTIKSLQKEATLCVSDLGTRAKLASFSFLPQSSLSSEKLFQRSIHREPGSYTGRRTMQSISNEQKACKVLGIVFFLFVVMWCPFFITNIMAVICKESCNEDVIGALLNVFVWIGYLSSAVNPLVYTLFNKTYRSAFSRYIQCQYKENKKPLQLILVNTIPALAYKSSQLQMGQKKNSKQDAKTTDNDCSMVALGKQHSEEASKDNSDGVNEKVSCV
Chain of 5-hydroxytryptamine receptor 5A (P47898 whole entry): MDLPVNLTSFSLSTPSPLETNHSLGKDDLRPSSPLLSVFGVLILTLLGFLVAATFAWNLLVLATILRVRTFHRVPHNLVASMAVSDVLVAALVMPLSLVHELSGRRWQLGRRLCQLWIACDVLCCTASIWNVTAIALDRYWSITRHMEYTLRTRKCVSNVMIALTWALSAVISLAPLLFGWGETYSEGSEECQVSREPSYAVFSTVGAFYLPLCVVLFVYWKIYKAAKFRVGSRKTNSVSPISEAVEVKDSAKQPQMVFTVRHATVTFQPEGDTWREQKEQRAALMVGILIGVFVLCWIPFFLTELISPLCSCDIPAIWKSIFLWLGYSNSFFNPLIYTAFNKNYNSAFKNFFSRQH

O=C(Nc1cccc2c(=O)cc(-c3nnn[nH]3)oc12)c1ccc(OCCCCc2ccccc2)cc1
AC50 [1]: 28 µM

CC(/C=C1\SC(=S)N(CC(=O)O)C1=O)=C\c1ccccc1
AC50 [2]: > 30 µM
AC50 [3]: > 30 µM
AC50 [4]: > 30 µM
AC50 [5]: > 30 µM
AC50 [6]: 3.6 µM
AC50 [7]: > 30 µM

CC1(C)S[C@@H]2[C@H](NC(=O)[C@H](N)c3ccc(O)cc3)C(=O)N2[C@H]1C(=O)O [AMOXICILLIN]
AC50 [2]: > 30 µM
AC50 [8]: > 10 µM
AC50 [3]: > 30 µM
AC50 [4]: > 30 µM
AC50 [5]: > 30 µM
AC50 [6]: 15 µM
AC50 [9]: > 10 µM
AC50 [7]: 4.1 µM

O=C1CN2Cc3c(ccc(Cl)c3Cl)N=C2N1 [ANAGRELIDE]
AC50 [10]: > 10 µM

COC(=O)[C@H](c1ccccc1Cl)N1CCc2sccc2C1 [CLOPIDOGREL]
AC50 [9]: > 10 µM

CCC(=O)O[C@@H](O[P@](=O)(CCCCc1ccccc1)CC(=O)N1C[C@H](C2CCCCC2)C[C@H]1C(=O)O)C(C)C [FOSINOPRIL]
AC50 [1]: > 30 µM

Cc1cnc(NC(=O)C2=C(O)c3ccccc3S(=O)(=O)N2C)s1 [MELOXICAM]
AC50 [8]: > 10 µM
AC50 [9]: > 10 µM

CN(C)c1cc(CNCC(C)(C)C)c(O)c2c1C[C@H]1C[C@H]3[C@H](N(C)C)C(O)=C(C(N)=O)C(=O)[C@@]3(O)C(O)=C1C2=O [OMADACYCLINE]
AC50 [1]: > 30 µM

CNC[C@H](O)c1cccc(O)c1 [PHENYLEPHRINE]
AC50 [8]: > 10 µM
AC50 [10]: > 10 µM

CC(C)C[C@H](CN)CC(=O)O [PREGABALIN]
AC50 [10]: > 10 µM

CNC(=O)c1cc(Oc2ccc(NC(=O)Nc3ccc(Cl)c(C(F)(F)F)c3)c(F)c2)ccn1 [REGORAFENIB]
AC50 [2]: 7.2 µM
AC50 [3]: > 30 µM
AC50 [4]: > 30 µM
AC50 [5]: > 30 µM
AC50 [6]: 24 µM
AC50 [1]: 2.37 µM
AC50 [7]: > 30 µM

CCOc1cc(CC(=O)N[C@@H](CC(C)C)c2ccccc2N2CCCCC2)ccc1C(=O)O [REPAGLINIDE]
AC50 [2]: 6.5 µM
AC50 [3]: > 30 µM
AC50 [4]: > 30 µM
AC50 [5]: > 30 µM
AC50 [6]: 5 µM
AC50 [7]: > 30 µM

CCCN(CCC)CCc1cccc2c1CC(=O)N2 [ROPINIROLE]
AC50 [10]: > 10 µM

CCCCNc1ccc(C(=O)OCCN(C)C)cc1 [TETRACAINE]
AC50 [8]: > 10 µM
AC50 [9]: > 10 µM

CN1CCN(CCCN2c3ccccc3Sc3ccc(S(=O)(=O)N(C)C)cc32)CC1 [THIOPROPERAZINE]
AC50 [1]: 3.24 µM

CC1(C)O[C@@H]2[C@@H](CO[C@@]3(COS(N)(=O)=O)OC(C)(C)O[C@@H]23)O1 [TOPIRAMATE]
AC50 [8]: > 10 µM
AC50 [10]: > 10 µM
